What was measured:
Assay type in all cases: cell-based; call rule not given here
[1] = target: T1, Transient receptor potential cation channel subfamily V member 1 (Homo sapiens, UniProt Q8NER1); test: Agonist activity at human recombinant TRPV1 expressed in HEK293 cells assessed as Ca2+ influx by Fluo-4 dye based assay relative to 4 uM ionomycin
[2] = target: T1, Transient receptor potential cation channel subfamily V member 1; test: Agonist activity at human recombinant TRPV1 expressed in HEK293 cells assessed as Ca2+ influx by Fluo-4 dye based assay
[3] = target: T1, Transient receptor potential cation channel subfamily V member 1; test: Antagonist activity against human recombinant TRPV1 expressed in HEK293 cells assessed as inhibition of capsaicin-induced Ca2+ influx pre-treated 5 mins before capsaicin addition by Fluo-4 dye based assay
[4] = target: Transient receptor potential cation channel subfamily A member 1 (Rattus norvegicus) (UniProt Q6RI86); test: Agonist activity at rat recombinant TRPA1 expressed in HEK293 cells assessed as Ca2+ influx by Fluo-4 dye based assay relative to 100 uM AITC
Sequence of Transient receptor potential cation channel subfamily A member 1 (Rattus norvegicus) (Q6RI86 whole entry): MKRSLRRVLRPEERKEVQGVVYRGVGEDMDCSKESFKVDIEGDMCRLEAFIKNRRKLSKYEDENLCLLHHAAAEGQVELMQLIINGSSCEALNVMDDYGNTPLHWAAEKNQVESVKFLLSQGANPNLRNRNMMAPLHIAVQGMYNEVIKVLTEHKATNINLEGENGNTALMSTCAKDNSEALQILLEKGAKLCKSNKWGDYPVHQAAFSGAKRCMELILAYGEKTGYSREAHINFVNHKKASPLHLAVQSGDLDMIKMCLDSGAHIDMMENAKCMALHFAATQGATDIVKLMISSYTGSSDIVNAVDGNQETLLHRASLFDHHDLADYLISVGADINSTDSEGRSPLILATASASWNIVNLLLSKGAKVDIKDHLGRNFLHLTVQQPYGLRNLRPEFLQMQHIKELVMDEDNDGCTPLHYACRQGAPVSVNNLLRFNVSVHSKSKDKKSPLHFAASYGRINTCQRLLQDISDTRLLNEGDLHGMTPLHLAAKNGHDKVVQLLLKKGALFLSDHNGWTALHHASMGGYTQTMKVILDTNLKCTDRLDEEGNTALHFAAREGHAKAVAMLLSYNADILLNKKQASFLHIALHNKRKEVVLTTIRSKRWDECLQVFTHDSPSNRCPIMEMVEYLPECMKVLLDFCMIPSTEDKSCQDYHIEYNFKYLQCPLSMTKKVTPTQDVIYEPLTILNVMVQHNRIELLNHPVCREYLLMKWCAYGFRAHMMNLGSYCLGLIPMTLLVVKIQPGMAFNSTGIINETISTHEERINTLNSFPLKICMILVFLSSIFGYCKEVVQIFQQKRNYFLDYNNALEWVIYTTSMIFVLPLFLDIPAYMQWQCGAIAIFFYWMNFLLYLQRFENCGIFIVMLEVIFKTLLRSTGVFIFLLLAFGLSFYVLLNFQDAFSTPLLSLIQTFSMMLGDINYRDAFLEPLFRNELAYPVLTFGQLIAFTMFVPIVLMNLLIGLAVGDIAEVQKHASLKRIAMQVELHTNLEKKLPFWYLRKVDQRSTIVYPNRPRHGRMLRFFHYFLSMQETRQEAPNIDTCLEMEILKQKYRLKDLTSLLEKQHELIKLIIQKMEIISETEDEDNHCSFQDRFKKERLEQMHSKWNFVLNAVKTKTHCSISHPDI

[5] = target: T2, Transient receptor potential cation channel subfamily A member 1 (Rattus norvegicus, UniProt Q6RI86); test: Agonist activity at rat recombinant TRPA1 expressed in HEK293 cells assessed as Ca2+ influx by Fluo-4 dye based assay
T2 sequence (Q6RI86 whole entry): as above

[6] = target: T2, Transient receptor potential cation channel subfamily A member 1; test: Antagonist activity against rat recombinant TRPA1 expressed in HEK293 cells assessed as inhibition of AITC-induced Ca2+ influx pre-treated 5 mins before capsaicin addition by Fluo-4 dye based assay

T1 sequence (Q8NER1 whole entry): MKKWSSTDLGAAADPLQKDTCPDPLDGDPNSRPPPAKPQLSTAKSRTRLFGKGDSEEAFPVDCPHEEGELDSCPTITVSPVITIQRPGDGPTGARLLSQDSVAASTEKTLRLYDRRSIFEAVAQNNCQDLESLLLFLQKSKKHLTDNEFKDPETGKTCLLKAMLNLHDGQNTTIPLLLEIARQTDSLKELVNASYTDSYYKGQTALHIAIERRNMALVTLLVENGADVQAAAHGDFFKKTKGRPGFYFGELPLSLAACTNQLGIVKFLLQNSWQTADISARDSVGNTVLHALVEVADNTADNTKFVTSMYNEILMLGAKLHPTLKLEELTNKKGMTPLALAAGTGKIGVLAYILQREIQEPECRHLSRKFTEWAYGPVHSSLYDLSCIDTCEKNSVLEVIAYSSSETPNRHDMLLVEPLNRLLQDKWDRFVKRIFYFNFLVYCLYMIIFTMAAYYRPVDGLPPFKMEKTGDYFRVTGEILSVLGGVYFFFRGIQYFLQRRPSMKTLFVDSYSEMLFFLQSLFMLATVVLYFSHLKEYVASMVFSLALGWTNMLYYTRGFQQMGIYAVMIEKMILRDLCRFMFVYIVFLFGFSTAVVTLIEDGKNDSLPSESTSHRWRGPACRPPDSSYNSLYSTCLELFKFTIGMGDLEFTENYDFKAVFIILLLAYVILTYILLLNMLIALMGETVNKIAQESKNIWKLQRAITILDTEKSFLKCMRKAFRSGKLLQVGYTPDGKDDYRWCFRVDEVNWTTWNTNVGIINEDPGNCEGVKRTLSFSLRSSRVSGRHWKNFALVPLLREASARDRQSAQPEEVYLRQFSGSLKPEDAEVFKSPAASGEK

## CCCCCCCCCn1nnc(-c2ccc(O)c(OC)c2)n1
[1]
  Efficacy: 28.5%
[2]; read-out: EC50
  EC50: 6.9 µM
[3]
  IC50: 36 µM
[4]
  Efficacy: 65.9%
[5]; read-out: EC50
  EC50: 1.41 µM
[6]
  IC50: 1.71 µM

## CCCCCC[C@@H](O)C/C=C\CCCCCCCCn1nnc(-c2ccc(O)c(OC)c2)n1
[1]
  Efficacy: 21%
[2]; read-out: EC50
  EC50: 37.5 µM
[3]
  IC50: 57.5 µM
[4]
  Efficacy: 62.6%
[5]; read-out: EC50
  EC50: 36.7 µM
[6]
  IC50: 11.2 µM

## COc1cc(CNC(=O)CCCC/C=C/C(C)C)ccc1O [CAPSAICIN]
[5]; hek293
  EC50: Not Active

## CCCCCCCC/C=C\CCCCCCCCn1nnc(-c2ccc(O)c(OC)c2)n1
[1]
  Efficacy: 24.2%
[2]; read-out: EC50
  EC50: 5.5 µM
[3]
  IC50: > 100 µM
[4]
  Efficacy: 83.1%
[5]; read-out: EC50
  EC50: 0.83 µM
[6]
  IC50: 1 µM

## CCCCCC[C@H](C/C=C\CCCCCCCCn1nnc(-c2ccc(O)c(OC)c2)n1)OC(=O)Cc1ccccc1
[1]
  Efficacy: < 10%
[2]; hek293
  EC50: Not Active
[3]
  IC50: > 100 µM
[4]
  Efficacy: 72.6%
[5]; read-out: EC50
  EC50: 0.81 µM
[6]
  IC50: 2.9 µM

## C=CCN=C=S
[4]
  Efficacy: 38.9%

From ChEMBL document CHEMBL3396955, “Discovery of non-electrophilic capsaicinoid-type TRPA1 ligands” (Bioorg Med Chem Lett, 2015)
